# According to patent US4112228A, “7-(D-α-Hydroxy-2-arylacetamido)-3-(2-carboxyalkyl-2,3-dihydro-s-tri azolo-[4,3-b]pyridazin-3-on-6-ylthiomethyl)-3-cephem-4-carboxylic acids and derivatives” (priority 1977, dated 1978):
# Read-outs that look alike come from different tables or passages of the source.
# Legend:
# Shig. sonnei = experiment: MIC by Steers' agar dilution method; type: cell-based; conditions: Shigella sonnei, MHA
# [1] = tested on: E. cloacae A20464 (El-19); experiment: Standard experimental infection in mice; type: in vivo; conditions: Run C-811
# E. coli Juhl = experiment: Standard experimental infection in mice; type: in vivo; conditions: Table 6
# S. pyogenes = experiment: MIC by Steers' agar dilution method
# K. pneumoniae A9977 = experiment: Standard experimental infection in mice; type: in vivo; conditions: for ED50: Klebsiella pneumoniae, A9977, read-out: PD50
# Pr. mirabilis = experiment: MIC by Steers' agar dilution method; conditions: Proteus mirabilis
# E. coli = experiment: MIC by Steers' agar dilution method; type: cell-based; conditions: Escherichia coli
# Sal. typhosa = experiment: MIC by Steers' agar dilution method; type: cell-based; conditions: St-1; MHA; Table 3
structure (smiles),measurement,setting,value
"Cn1nnnc1SCC1=C(C(=O)O)N2C(=O)[C@@H](NC(=O)[C@H](O)c3ccccc3)[C@H]2SC1 [Cefamandole, cefamandole, reference compound]",MIC,"Shig. sonnei; A9516, Table 1",0.05 µg/mL
same,MIC,Shig. sonnei; Example 10,0.2 µg/mL
same,MIC,"Shig. sonnei; Ss-1 Yale, Table 3",0.1 µg/mL
same,ED50,"[1]; Enterobacter cloacae, read-out: PD50",0.8 mg/kg
same,No. of survivors/No. tested,[1]; 0.4 mg./kg.,1/5
same,No. of survivors/No. tested,[1]; 1.6 mg./kg.,4/5
same,No. of survivors/No. tested,[1]; 6.3 mg./kg.,5/5
same,No. of survivors/No. tested,[1]; 100 mg./kg.,5/5
same,No. of survivors/No. tested,E. coli Juhl; 0.4 mg./kg.,0/5
same,No. of survivors/No. tested,E. coli Juhl; 1.6 mg./kg.,2/5
same,No. of survivors/No. tested,E. coli Juhl; 6.3 mg./kg.,5/5
same,No. of survivors/No. tested,E. coli Juhl; 25 mg./kg.,5/5
same,ED50,"E. coli Juhl; Escherichia coli, read-out: PD50",1.8 mg/kg
same,MIC,S. pyogenes,0.1 µg/mL
same,MIC,"S. pyogenes; Sp-2 Dick, MHA, Table 2",0.1 µg/mL
same,MIC,"S. pyogenes; Sp-3 A9604, MHA, Table 2",0.1 µg/mL
same,MIC,"S. pyogenes; Sp-5 A15040, MHA, Table 2",0.1 µg/mL
same,MIC,"S. pyogenes; Sp-6 A20066, MHA, Table 2",0.1 µg/mL
same,MIC,"S. pyogenes; Sp-7 Dig 7, MHA, Table 2",0.1 µg/mL
same,MIC,"S. pyogenes; Sp-8 A15041, MHA, Table 2",0.1 µg/mL
same,MIC,"S. pyogenes; Sp-9 A20201, MHA, Table 2",0.1 µg/mL
same,MIC,"S. pyogenes; Sp-10 A20202, MHA, Table 2",0.1 µg/mL
same,MIC,S. pyogenes; Streptococcus pyogenes,0.1 µg/mL
same,No. of survivors/No. tested,"K. pneumoniae A9977; 0.4 mg./kg., Table 6",0/5
same,No. of survivors/No. tested,"K. pneumoniae A9977; 1.6 mg./kg., Table 6",0/5
same,No. of survivors/No. tested,"K. pneumoniae A9977; 6.3 mg./kg., Table 6",1/5
same,No. of survivors/No. tested,"K. pneumoniae A9977; 25 mg./kg., Table 6",5/5
same,ED50,"K. pneumoniae A9977; Run C-805, 3×10^3 LD50, single sc",9.4 mg/kg
same,ED50,K. pneumoniae A9977; Table 6,6.25 mg/kg
same,No. of survivors/No. tested,"K. pneumoniae A9977; Run C-805, 3×10^3 LD50, single sc, 0.4 mg./kg.",0/5
same,No. of survivors/No. tested,"K. pneumoniae A9977; Run C-805, 3×10^3 LD50, single sc, 1.6 mg./kg.",0/5
same,No. of survivors/No. tested,"K. pneumoniae A9977; Run C-805, 3×10^3 LD50, single sc, 6.3 mg./kg.",1/5
same,No. of survivors/No. tested,"K. pneumoniae A9977; Run C-805, 3×10^3 LD50, single sc, 25 mg./kg.",5/5
same,MIC,"Pr. mirabilis; A9554, MHA, Table 1",0.4 µg/mL
same,MIC,"Pr. mirabilis; Pm-1 A9554, HIA, Table 4",0.4 µg/mL
same,MIC,"Pr. mirabilis; Pm-1 A9554, NA, Table 4",0.2 µg/mL
same,MIC,"Pr. mirabilis; Pm-2 A9900, HIA, Table 4",0.4 µg/mL
same,MIC,"Pr. mirabilis; Pm-2 A9900, MHA, Table 3",1.6 µg/mL
same,MIC,"Pr. mirabilis; Pm-2 A9900, MHA, Table 4",0.8 µg/mL
same,MIC,"Pr. mirabilis; Pm-2 A9900, NA, Table 4",0.4 µg/mL
same,MIC,"Pr. mirabilis; Pm-3 A20119, MHA, Table 3",3.1 µg/mL
same,MIC,"Pr. mirabilis; Pm-4 A20454, MHA, Table 3",1.6 µg/mL
same,MIC,"Pr. mirabilis; Pm-6 A21222, MHA, Table 3",1.6 µg/mL
same,MIC,"Pr. mirabilis; strain not named (2nd of 2), MHA, Example 10",0.2 µg/mL
same,MIC,"E. coli; A9660, MHA, Table 1, read-out: MIC",0.1 µg/mL
same,MIC,"E. coli; A15147, MHA, Table 1, read-out: MIC",0.4 µg/mL
same,MIC,"E. coli; A15810, MHA, Table 1, read-out: MIC",0.4 µg/mL
same,MIC,"E. coli; ATCC8739, ATCC 8739, MHA, Example 10",3.1 µg/mL
same,MIC,"E. coli; ATCC8739, ATCC 8739, MHA, Table 1, read-out: MIC",0.05 µg/mL
same,MIC,"E. coli; ATCC8739, Ec-15 ATCC 8739, HIA, Table 4, read-out: MIC",0.1 µg/mL
same,MIC,"E. coli; ATCC8739, Ec-15 ATCC 8739, MHA, Table 3, read-out: MIC",0.1 µg/mL
same,MIC,"E. coli; ATCC8739, Ec-15 ATCC 8739, MHA, Table 4, read-out: MIC",0.1 µg/mL
same,MIC,"E. coli; ATCC8739, Ec-15 ATCC 8739, NA, Table 4, read-out: MIC",0.1 µg/mL
same,MIC,"E. coli; BX-1373, MHA, Example 10, read-out: MIC",3.1 µg/mL
same,MIC,"E. coli; BX-1373, MHA, Table 1, read-out: MIC",0.8 µg/mL
same,MIC,"E. coli; Ec-1 NIHJ, HIA, Table 4, read-out: MIC",0.1 µg/mL
same,MIC,"E. coli; Ec-1 NIHJ, MHA, Table 3, read-out: MIC",0.1 µg/mL
same,MIC,"E. coli; Ec-1 NIHJ, MHA, Table 4, read-out: MIC",0.05 µg/mL
same,MIC,"E. coli; Ec-1 NIHJ, NA, Table 4, read-out: MIC",0.1 µg/mL
same,MIC,"E. coli; Ec-3 Juhl A15119, HIA, Table 4, read-out: MIC",0.4 µg/mL
same,MIC,"E. coli; Ec-3 Juhl A15119, MHA, Table 3, read-out: MIC",0.8 µg/mL
same,MIC,"E. coli; Ec-3 Juhl A15119, MHA, Table 4, read-out: MIC",0.4 µg/mL
same,MIC,"E. coli; Ec-3 Juhl A15119, NA, Table 4, read-out: MIC",0.2 µg/mL
same,MIC,"E. coli; Ec-4 A15169, MHA, Table 3, read-out: MIC",6.3 µg/mL
same,MIC,"E. coli; Ec-5 K-12, ML-1630 A20363, MHA, Table 3, read-out: MIC",0.8 µg/mL
same,MIC,"E. coli; Ec-11 A20366 (β-lactamase), HIA, Table 4, read-out: MIC",25 µg/mL
same,MIC,"E. coli; Ec-11 A20366 (β-lactamase), MHA, Table 4, read-out: MIC",50 µg/mL
same,MIC,"E. coli; Ec-11 A20366 (β-lactamase), NA, Table 4, read-out: MIC",50 µg/mL
same,MIC,"E. coli; Ec-11 A20366, MHA, Table 3, read-out: MIC",25 µg/mL
same,MIC,"E. coli; Ec-34 A9660, MHA, Table 3, read-out: MIC",0.1 µg/mL
same,MIC,"E. coli; Ec-35 A9435, MHA, Table 3, read-out: MIC",0.8 µg/mL
same,MIC,"E. coli; Ec-36 A15147 (β-lactamase), HIA, Table 4, read-out: MIC",3.1 µg/mL
same,MIC,"E. coli; Ec-36 A15147 (β-lactamase), MHA, Table 4, read-out: MIC",3.1 µg/mL
same,MIC,"E. coli; Ec-36 A15147 (β-lactamase), NA, Table 4, read-out: MIC",1.6 µg/mL
same,MIC,"E. coli; Ec-36 A15147, MHA, Table 3, read-out: MIC",1.6 µg/mL
same,MIC,"E. coli; Ec-40 A20361, MHA, Table 3, read-out: MIC",0.8 µg/mL
same,MIC,"E. coli; Ec-44 A9535, MHA, Table 3, read-out: MIC",0.1 µg/mL
same,MIC,"E. coli; Ec-45 A15148, MHA, Table 3, read-out: MIC",1.6 µg/mL
same,MIC,"E. coli; Ec-46 A15164 (β-lactamase), HIA, Table 4, read-out: MIC",12.5 µg/mL
same,MIC,"E. coli; Ec-46 A15164 (β-lactamase), MHA, Table 4, read-out: MIC",12.5 µg/mL
same,MIC,"E. coli; Ec-46 A15164 (β-lactamase), NA, Table 4, read-out: MIC",25 µg/mL
same,MIC,"E. coli; Ec-46 A15164, MHA, Table 3, read-out: MIC",12.5 µg/mL
same,MIC,"E. coli; Ec-47 A15170, MHA, Table 3, read-out: MIC",50 µg/mL
same,MIC,"E. coli; Ec-49 A20107, MHA, Table 3, read-out: MIC",0.2 µg/mL
same,MIC,"E. coli; Ec-50 A20109, MHA, Table 3, read-out: MIC",0.8 µg/mL
same,MIC,"E. coli; Ec-51 A20343 (β-lactamase), HIA, Table 4, read-out: MIC",25 µg/mL
same,MIC,"E. coli; Ec-51 A20343 (β-lactamase), MHA, Table 4, read-out: MIC",25 µg/mL
same,MIC,"E. coli; Ec-51 A20343 (β-lactamase), NA, Table 4, read-out: MIC",12.5 µg/mL
same,MIC,"E. coli; Ec-51 A20343, MHA, Table 3, read-out: MIC",12.5 µg/mL
same,MIC,"E. coli; Ec-56 A20365, MHA, Table 3, read-out: MIC",12.5 µg/mL
same,MIC,"E. coli; Ec-58 A9675, MHA, Table 3, read-out: MIC",1.6 µg/mL
same,MIC,"E. coli; Ec-59 A20766, MHA, Table 3, read-out: MIC",0.8 µg/mL
same,MIC,"E. coli; Ec-62 A20895, MHA, Table 3, read-out: MIC",0.8 µg/mL
same,MIC,"E. coli; Juhl A15119, MHA, Table 1, read-out: MIC",0.4 µg/mL
same,MIC,"E. coli; Juhl, MHA, Example 10, read-out: MIC",0.8 µg/mL
same,MIC,"E. coli; NIHJ, MHA, Example 10, read-out: MIC",0.05 µg/mL
same,MIC,"E. coli; NIHJ, MHA, Table 1, read-out: MIC",0.025 µg/mL
same,MIC,"E. coli; strain not named (1st of 3), MHA, Example 10, read-out: MIC",0.1 µg/mL
same,MIC,"E. coli; strain not named (2nd of 3), MHA, Example 10, read-out: MIC",0.1 µg/mL
same,MIC,"E. coli; strain not named (3rd of 3), MHA, Example 10, read-out: MIC",1.6 µg/mL
same,MIC,Sal. typhosa,0.2 µg/mL
